The subject of data set [1] is Mycobacterium tuberculosis. The experiment in a line: Antimycobacterial activity against Mycobacterium tuberculosis H37Rv assessed as reduction in bacterial growth preincubated for 72 hrs followed by phAE202 and Cacl2 addition and measured after 4 hrs by luciferase reporter mycobacterio-phage assay. The class given is functional. The following applies: time 76 hrs. For orientation: In a reporter assay the amount or activity of a reporter protein is the signal.

Data set [2] deals with Mycobacterium tuberculosis. The experiment in a line: Antimycobacterial activity against Mycobacterium tuberculosis H37Rv assessed as inhibition of bacterial growth at 100 ug/ml preincubated for 72 hrs followed by phAE202 and Cacl2 addition and measured after 4 hrs by luciferase reporter mycobacterio-phage assay. The note with it: time 76 hrs. The class given is functional.

For data set [3], the system named is Mycobacterium tuberculosis. Nature of the data set: Antimycobacterial activity against Mycobacterium tuberculosis H37Rv assessed as inhibition of bacterial growth at 50 ug/ml preincubated for 72 hrs followed by phAE202 and Cacl2 addition and measured after 4 hrs by luciferase reporter mycobacterio-phage assay. The format is functional. The following applies: time 76 hrs.

The nature of data set [4]: Cytotoxicity against human Mo7e cells assessed as cell viability at 10 to 50 ug/ml incubated for 24 hrs by WST-1 assay relative to control. The format is cell-based, M07E. The following applies: at 10 to 50 µg/mL, dose 10-50 µg/ml, read-out: Activity. In general terms: Formazan colour is commonly taken as a measure of viable cells.
Data set [5] in a line: Cytotoxicity against mouse BA/F3 cells assessed as cell viability at 10 to 50 ug/ml incubated for 24 hrs by WST-1 assay relative to control. The class given is cell-based, BaF3. The note with it: at 10 to 50 µg/mL, dose 10-50 µg/ml, read-out: Activity.

Values after ≈ are worked out from the molar mass of the structure shown.

Take `O=C(/C=C/c1c[nH]c2ccccc12)c1ccc(Cl)cc1`: in data set [1], the MIC was above 355 µM. Further, the inhibition (as a rule, how much of the control response was suppressed) at 100 µg/mL in data set [2] worked out at 50.6%. In addition, in data set [3], the inhibition at 50 µg/mL was found to be 48.6%.
In the same order, the values of `O=C(/C=C/c1c[nH]c2ccccc12)c1ccc(F)cc1` are 188 µM (≈ 49.9 µg/mL), 54.2% and 50.3%.
On to `O=C(/C=C/c1c[nH]c2ccccc12)c1ccc(C(F)(F)F)cc1`, for which, in data set [1], the MIC is above 317 µM. For the same compound, in data set [2], the inhibition at 100 µg/mL stood at 31.2%. For the same compound, the inhibition at 50 µg/mL in data set [3] was 29.7%.
For the compound `O=C(/C=C/c1c[nH]c2ccccc12)c1ccc(Cl)cc1Cl`, in data set [1], the MIC was determined as 164 µM (≈ 51.9 µg/mL). Further, the inhibition at 100 µg/mL in data set [2] was 55.2%. In data set [3], the inhibition at 50 µg/mL amounted to 52.3%.
With `COc1ccc(C(=O)/C=C/c2c[nH]c3ccccc23)cc1OC`, in data set [1], the MIC is above 325 µM. Further, the inhibition at 100 µg/mL in data set [2] stood at 31.7%. In addition, the inhibition at 50 µg/mL in data set [3] is 27.1%.
For `O=C(/C=C/c1c[nH]c2ccccc12)c1ccc(-c2ccoc2)cc1`, the MIC in data set [1] was determined as 210 µM (≈ 65.8 µg/mL). Also, the inhibition at 100 µg/mL in data set [2] came out at 87.7%. In data set [3], the inhibition at 50 µg/mL was determined as 85.3%. Moreover, the figures for the viability at 24 h in data set [4] and in data set [5] were above 80% and above 60%, respectively.
On to `O=C(/C=C/c1c[nH]c2ccccc12)c1cccnc1`, for which the MIC in data set [1] was determined as 201 µM (≈ 49.9 µg/mL). In addition, in data set [2], the inhibition at 100 µg/mL was 70.7%. Moreover, the inhibition at 50 µg/mL in data set [3] stood at 63.1%.
With `O=C(/C=C/c1c[nH]c2ccccc12)c1ccc(O)cc1`, the MIC in data set [1] amounted to 189 µM (≈ 49.8 µg/mL). For the same compound, the inhibition at 100 µg/mL in data set [2] came out at 55.1%. For the same compound, the inhibition at 50 µg/mL in data set [3] turned out to be 54.9%.
For the compound `O=C1CCCC/C1=C\c1cc2ccccc2[nH]1`, the MIC in data set [1] came out at 221 µM (≈ 49.8 µg/mL). In data set [2], the inhibition at 100 µg/mL is 62%. Further, the inhibition at 50 µg/mL in data set [3] turned out to be 53.1%.
In the case of `O=C(/C=C/c1c[nH]c2ccccc12)N1CCN(c2ccc(O)cc2)CC1`, the MIC in data set [1] worked out at 143 µM (≈ 49.7 µg/mL). For the same compound, the inhibition at 100 µg/mL in data set [2] amounted to 76.4%. In addition, in data set [3], the inhibition at 50 µg/mL turned out to be 63.8%.
Turning to `COc1cccc(C(=O)/C=C/c2c[nH]c3ccccc23)c1`, in data set [1], the MIC is above 360 µM. Further, the inhibition at 100 µg/mL in data set [2] came to 36.7%. Besides, in data set [3], the inhibition at 50 µg/mL was 27.1%.
For `O=C(/C=C/c1c[nH]c2ccccc12)c1ccc(-c2ccsc2)cc1`, the MIC in data set [1] is 197 µM (≈ 64.9 µg/mL). The inhibition at 100 µg/mL in data set [2] was found to be 63.4%. Further, in data set [3], the inhibition at 50 µg/mL worked out at 62%.
Take `O=C(/C=C/c1c[nH]c2ccccc12)c1cccc(C(F)(F)F)c1`: the MIC in data set [1] was above 317 µM. Moreover, the inhibition at 100 µg/mL in data set [2] came to 26.3%. The inhibition at 50 µg/mL in data set [3] stood at 24.5%.
Take `O=C(/C=C/c1c[nH]c2ccccc12)c1ccc(-c2cccs2)cc1`: in data set [1], the MIC was found to be 197 µM (≈ 64.9 µg/mL). Moreover, in data set [2], the inhibition at 100 µg/mL amounted to 87.2%. Also, the inhibition at 50 µg/mL in data set [3] came out at 82%. The viability at 24 h in data set [4] was above 80%; in data set [5], above 60%.
As to `O=C(/C=C/c1c[nH]c2ccccc12)c1ccncc1`, in data set [1], the MIC is 201 µM (≈ 49.9 µg/mL). Also, the inhibition at 100 µg/mL in data set [2] came to 64.2%. Also, the inhibition at 50 µg/mL in data set [3] came out at 58.4%.
Turning to `Cc1ccc(C(=O)/C=C/c2c[nH]c3ccccc23)cc1`, the MIC in data set [1] was above 382 µM. Moreover, in data set [2], the inhibition at 100 µg/mL turned out to be 50.9%. The inhibition at 50 µg/mL in data set [3] turned out to be 41.7%.
For `O=C(/C=C/c1c[nH]c2ccccc12)c1ccc2c(c1)OCO2`, the MIC in data set [1] amounted to 171 µM (≈ 49.8 µg/mL). The inhibition at 100 µg/mL in data set [2] is 75.7%. Moreover, in data set [3], the inhibition at 50 µg/mL is 66.8%.
Consider `O=C(/C=C/c1c[nH]c2ccccc12)c1ccc(Br)cc1`, for which the MIC in data set [1] stood at 155 µM (≈ 50.6 µg/mL). The inhibition at 100 µg/mL in data set [2] is 65.9%. In addition, the inhibition at 50 µg/mL in data set [3] is 64.9%.
As to `O=C1CCC/C1=C\c1cc2ccccc2[nH]1`, the MIC in data set [1] worked out at 236 µM (≈ 49.9 µg/mL). In data set [2], the inhibition at 100 µg/mL worked out at 86.3%. In addition, in data set [3], the inhibition at 50 µg/mL was 84.3%. The viability at 24 h was above 80% in data set [4] and above 60% in data set [5].
With `O=C(/C=C/c1c[nH]c2ccccc12)c1ccc(-c2ccc[nH]2)cc1`, in data set [1], the MIC is above 423 µM. In addition, in data set [2], the inhibition at 100 µg/mL was 49.4%. Also, the inhibition at 50 µg/mL in data set [3] came to 26.4%.
As to `NNC(=O)c1ccncc1` [ISONIAZID], the MIC in data set [1] came to 1.4 µM (≈ 0.192 µg/mL). In addition, in data set [2], the inhibition at 100 µg/mL is above 99%.
As to `CO[C@H]1/C=C/O[C@@]2(C)Oc3c(C)c(O)c4c(O)c(c(/C=N/N5CCN(C)CC5)c(O)c4c3C2=O)NC(=O)/C(C)=C\C=C\[C@H](C)[C@H](O)[C@@H](C)[C@@H](O)[C@@H](C)[C@H](OC(C)=O)[C@@H]1C` [RIFAMPIN], the MIC in data set [1] was found to be 2.4 µM (≈ 1.98 µg/mL). In data set [2], the inhibition at 100 µg/mL is above 99%.
Regarding `O=C(/C=C/c1c[nH]c2ccccc12)c1ccc2ccccc2c1`, the MIC in data set [1] is above 336 µM. Further, the inhibition at 100 µg/mL in data set [2] came to 41.8%. The inhibition at 50 µg/mL in data set [3] was determined as 30.8%.
For the compound `O=C(/C=C/c1c[nH]c2ccccc12)c1cccc([N+](=O)[O-])c1`, in data set [1], the MIC is above 342 µM. In addition, in data set [2], the inhibition at 100 µg/mL is 51.7%. Further, in data set [3], the inhibition at 50 µg/mL amounted to 48.7%.
For the compound `Nc1cccc(C(=O)/C=C/c2c[nH]c3ccccc23)c1`, the MIC in data set [1] was above 381 µM. Moreover, in data set [2], the inhibition at 100 µg/mL amounted to 48.7%. For the same compound, the inhibition at 50 µg/mL in data set [3] was 37.2%.
In the case of `O=C(/C=C/c1c[nH]c2ccccc12)c1ccccn1`, the MIC in data set [1] is 201 µM (≈ 49.9 µg/mL). Moreover, the inhibition at 100 µg/mL in data set [2] worked out at 62%. For the same compound, the inhibition at 50 µg/mL in data set [3] worked out at 53.1%.
In the same order, the values of `O=C(/C=C/c1c[nH]c2ccccc12)c1ccc(-n2ccnc2)cc1` are 159 µM (≈ 49.8 µg/mL), 70.7% and 63.6%.

The record behind these values is ChEMBL document CHEMBL4680256, “Indole chalcones: Design, synthesis, in vitro and in silico evaluation against Mycobacterium tuberculosis” (Eur J Med Chem, 2020).
